Assay results from US12589087B2, “Enantiomer selective action on neurotransmission” (The Board of Trustees of the Leland Stanford Junior …, priority 2021, dated 2026).

Tested on: C57Bl/6 mice
Assay: SHIRPA, activity chamber open field and hot plate after single injection
Assay type: in vivo, mouse
Description: Dosing: (R)-2MeGlu (30, 100, 300, or 900 mg/kg), (S)-2MeGlu (30, 100, 300, or 900 mg/kg), rac-2MeGln (30, 100, 300, or 900 mg/kg) and vehicle (PBS) were administered at 10 ml/kg IP dosing volume. Three mice were dosed once with the assigned drug (100, 300, or 900 mg/kg) or vehicle and immediately placed in a new cage for novel cage observation. Subsequently, six mice were dosed once with the assigned drug (30 or 100 mg/kg) or vehicle and tested by SHIRPA, activity chamber, and then hot plate tests.
Hot Plate apparatus (IITC Inc. Model 39) was set to 55° C.±0.2. On testing day, mice were placed on the surface of the hot plate and covered by a transparent glass cylinder (25 cm high and 12 cm diameter). A 30 second cutoff time was assigned. A remote foot-switch pad was used to control the start/stop/reset function. Latency time was recorded when hind paw licking or jumping off first occurred.
The SHIRPA preliminary screen designed by Rogers et al. (1997) was modified and used to assess the general health and behavioral traits of the mice for the initial five minutes after drug administration. The test was conducted in three different testing locations: A cylindrical clear plastic viewing jar (15 cm height×10 cm diameter), a polycarbonate cage (Arena) with 10 cm×10 cm squares on the floor, and a 1 cm×1 cm wire grid. The test began by placing the mouse in the clear plastic viewing jar for 60 seconds, and the behavioral parameters were monitored and recorded. The mouse was then transferred to an open-top arena by releasing them from 25 cm above the floor of the arena. Upon completion of monitoring the parameters inside the arena, the mouse was removed from the arena by the tail. Behavioral parameters monitored were according to Portmann et al. (2014).
Assessment was made in an Open Field Activity Arena (Med Associates Inc., St. Albans, VT. Model ENV-515) mounted with three planes of infrared detectors within a specially designed sound-attenuating chamber (Med Associates Inc., St. Albans, VT. MED-017M-027). The arena was 43 cm (L)×43 cm (W)×30 cm (H) and the sound-attenuating chamber was 74 cm (L)×60 cm (W)×60 cm (H). The mice were placed in the corner of the testing arena and allowed to explore the arena for 60 min while being tracked automatically. Parameters measured include distance moved, velocity, rearing, and times spent in the periphery and center of the Arena. Periphery was defined as the zone 5 cm away from the arena wall. The Arena was cleaned with a 1% Virkon solution at the end of the trial. […] The novel cage protocol is conducted on the benchtop in a lighted room using a clean home cage, and tests habituation using video recording and scoring of behavioral performance. Moreover, the novel cage allows the tester to visualize any other side effects such as seizure or repetitive jumping. The activity chamber is in an enclosed box, and the test is done in the dark, without bedding, and in a sound isolating chamber. The activity chamber measures distance moved using infrared beams and without video recordings.
Exploratory behavioral tests were performed exactly as previously described by us using 2-month-old C57Bl/6 male mice, Example 1. First, we assessed safety and tolerability of acute exposure to 4APA enantiomers in 22 mice by novel cage observation at 100, 300, or 900 mg/kg IP compared to vehicle (PBS) IP (n=3 or 4 mice per group without sample calculation, based on our previous study. Next, we evaluated 24 drug naïve mice with a 23-measure battery of neurologic dysfunction in mice (SHIRPA) (Rogers et al., 2001), automated activity chamber assessment, and hot plate latency acutely following 30 or 100 mg/kg IP compared to vehicle IP (n=4 or 5 mice per group). No exclusion criteria were predetermined and no randomization was performed to allocate subjects in the study.

[1] = single 30 mg/kg IP, only at 11 minutes post injection
[2] = single 100 mg/kg IP, up to 6 minutes post injection

| Compound | distance moved in the activity chamber vs vehicle [1] | distance moved in the activity chamber vs vehicle [2] |
| --- | --- | --- |
| CC(N)(CCC(N)=O)C(=O)O (racemic) [rac-2MeGln, rac-2-methylglutamine] | modest but significant reduction | not significantly different from vehicle at any time point |
| C[C@@](N)(CCC(=O)O)C(=O)O [(R)-2MeGlu, (R)-2-methylglutamic acid] | modest but significant reduction | significantly reduced |
| C[C@](N)(CCC(=O)O)C(=O)O [(S)-2MeGlu, (S)-2-methylglutamic acid] | not significantly different | significantly reduced |
